Assay results: patent US10316017B2, “COT modulators and methods of use thereof” (Gilead Sciences, Inc., priority 2015, dated 2019)

Columns and labels:
[1] = tested on: TNFα production in LPS-stimulated human monocytes; assay: Cot Monocyte TNFα Cell Based Assay; conditions: Homo sapiens, Monocyte, TNFα in LPS-stimulated human monocytes; read-out: EC50 TNF
Experimental: Example 60: Cot Monocyte TNFα Cell Based Assay
The cell suspension was then plated at a density of 5,000 cells/well onto black 384 well Greiner clear bottom plates. Plates were pre-spotted with test compounds and serially diluted in DMSO where 200 nL/well were delivered using the Echo 550 acoustic liquid dispenser (Labcyte®) for a final DMSO concentration of 0.5%. Plated cells were treated with compound for 1 hour at 37° C. Cells were then stimulated with 50 pg/ml of LPS (Sigma) excluding outside columns of plate used for unstimulated cell control wells. Cells were incubated for an additional 4 hours at 37° C. Cells were then spun out of the media and 5 ul of sample were taken and analyzed for total TNFα content using the TR-FRET Human TNFα detection system (CisBio). This system utilizes two labeled antibodies (cryptate and XL665) that bind to two different epitopes of the TNFα molecule and produce FRET signal proportional to the concentration of TNFα in the sample. Detection antibodies are mixed 50:50 and 5 μL were dispensed into each well. Plates were covered with clear seals and incubated at room temp overnight. […] Percent of control was calculated as follows: % Control=100×(RatioSample−Ratio0% stimulation)/(Ratio100% Stimulation−Ratio0% Stimulation) where unstimulated cells (0% stimulation) were the negative control and stimulated cells (100% stimulation) were used as the positive control.

[2] = molecular target: T1, human Cot catalytic domain (30-397 amino acids) (Homo sapiens, UniProt P41279); assay: High Throughput Cot Biochemical Assay (KinEASE TR-FRET); conditions: Cot KinEASE TR-FRET (HTRF) biochemical assay, 400 μM ATP; read-out: IC50 HTRF
T1 construct: Purified recombinant human Cot catalytic domain (30-397 amino acids) was purchased from Cama Biosciences; purchased Cama Biosciences (so in the source)
T1 sequence (P41279 30-397): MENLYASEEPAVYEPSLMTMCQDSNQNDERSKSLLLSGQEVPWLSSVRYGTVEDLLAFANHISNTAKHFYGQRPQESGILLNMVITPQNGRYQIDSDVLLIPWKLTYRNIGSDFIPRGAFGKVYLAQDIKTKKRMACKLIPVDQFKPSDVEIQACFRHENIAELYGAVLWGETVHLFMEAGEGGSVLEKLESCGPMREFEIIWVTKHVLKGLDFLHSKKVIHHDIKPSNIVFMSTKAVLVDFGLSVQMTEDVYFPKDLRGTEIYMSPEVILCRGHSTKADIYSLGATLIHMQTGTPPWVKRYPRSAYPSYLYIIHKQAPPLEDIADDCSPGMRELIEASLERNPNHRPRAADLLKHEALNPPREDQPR
In short: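 TR-FRET (KinEASE) read-out: Eu-labelled phospho-specific antibody binds XL665-tagged STK3 peptide (1 μM) phosphorylated by 5 nM human Cot kinase domain (residues 30-397). Reaction at 400 μM ATP, pH 7.0 MOPS buffer with 10 mM MgOAc, 1 mM DTT and 0.1% DMSO.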

Compound | EC50 [1] [nM] | IC50 [2] [nM]
[2H]C(Nc1cc(F)c2ncc(C#N)c(NC(CC#N)c3ccccc3)c2c1)(c1ccc(F)cc1)c1cn(C2CC2)nn1 (stereo in doubt) [Example 286, 4-((2-cyano-1-phenylethyl)amino)-6-(((1-cyclopropyl-1H-1,2,3-triazol-4-yl)(4-fluorophenyl)methyl-d)amino)-8-fluoroquinoline-3-carbonitrile] | 127 | 7
[2H]C(Nc1cc(Cl)c2ncc(C#N)c(N[C@H]3CCCCC3(C)C)c2c1)(c1ccc(F)cc1)c1cn(C2CC2)nn1 (stereo in doubt) [Example 319, 8-chloro-6-(((S)-(1-cyclopropyl-1H-1,2,3-triazol-4-yl)(4-fluorophenyl)methyl-d)amino)-4-(((S)-2,2-dimethylcyclohexyl)amino) quinoline-3-carbonitrile] | 4480 | 372
[2H]C(Nc1cc(Cl)c2ncc(C#N)c(NC3C(C)CCCC3C)c2c1)(c1ccc(F)cc1)c1cn(C2CC2)nn1 (stereo in doubt) [Example 320, 8-chloro-6-(((S)(1-cyclopropyl-1H-1,2,3-triazol-4-yl)(4-fluorophenyl)methyl-d)amino)-4-((2,6-dimethylcyclohexyl)amino) quinoline-3-carbonitrile] | 6430 | 1150
[2H][C@](Nc1cc(Cl)c2ncc(C#N)c(NCC(C)(C)C)c2c1)(c1ccc(F)cc1)c1cn(C2CC2)nn1 [Compound 1] | 143 | 6
[2H][C@](Nc1cc(Cl)c2ncc(C#N)c(N[C@H](CC)c3ccccc3)c2c1)(c1ccc(F)cc1)c1cn(C2CC2)nn1 [Compound 2] | 151 | 6
Cc1ccccc1[C@H](Nc1cc(Cl)c2ncc(C#N)c(NCC(C)(C)C)c2c1)c1cn(C2CC2)nn1 [Compound 3] | 246 | 7
[2H]C(Nc1cc(Cl)c2ncc(C#N)c(NCC(C)(C)C)c2c1)(c1cn(CC(N)=O)nn1)c1ccccc1Cl (stereo not drawn) [Compound 4] | 280 | 6
CCN1CCC(n2cc([C@@H](Nc3cc(Cl)c4ncc(C#N)c(Nc5ccc(F)c(Cl)c5)c4c3)c3ccc(F)cc3)nn2)CC1 [Compound 5] | 153 | 2
N#Cc1cnc2c(Cl)cc(NC(c3ccc(F)cc3)c3ccon3)cc2c1Nc1ccc(F)c(Cl)c1 (stereo not drawn) [Compound 7] | 1520 | 187
Cn1cc(C(Nc2cc(Br)c3ncc(C#N)c(Nc4ccc(F)c(Cl)c4)c3c2)c2ccc(F)cc2)nn1 (stereo not drawn) [Compound 8, 8-bromo-4-((3-chloro-4-fluorophenyl)amino)-6-(((4-fluorophenyl) (1-methyl-1H-1,2,3-triazol-4-yl)methyl)amino) quinoline-3-carbonitrile] | 571 | 33
CC(=O)N(C)c1cccc([C@H](Nc2cc(C#N)c3ncc(C#N)c(NCC(C)(C)C)c3c2)c2cn(C3CC3)nn2)c1 [Compound 9] | 172 | 2
CC(C)(C)N1CCC(n2cc([C@@H](Nc3cc(Cl)c4ncc(C#N)c(Nc5cnc(F)c(Cl)c5)c4c3)c3ccccc3)nn2)CC1 [Compound 10] | 71 | 4
[2H][C@](Nc1cc(C(C)=O)c2ncc(C#N)c(NCC(C)(C)C)c2c1)(c1ccc(F)cc1)c1cn(C2CC2)nn1 [Compound 11] | 98 | 5
[2H][C@](Nc1cc(-c2cncnc2)c2ncc(C#N)c(NCC(C)(C)C)c2c1)(c1ccc(F)cc1)c1cn(C2CC2)nn1 [Compound 12] | 205 | 20
[2H][C@](Nc1cc(Br)c2ncc(C#N)c(NCC(C)(C)C)c2c1)(c1ccc(F)cc1)c1nnn(C2CC2)c1SC [Compound 13, (S)-8-bromo-6-(((1-cyclopropyl-5-(methylthio)-1H-1,2,3-triazol-4-yl)(4-fluorophenyl)methyl-d)amino)-4-(neopentylamino) quinoline-3-carbonitrile] | 221 | 71
[2H][C@@](Nc1cc(C(C)=O)c2ncc(C#N)c(NCC(C)(C)C)c2c1)(c1cn(C2CC2)nn1)c1ccccc1Cl [Compound 14] | 298 | 13
[2H][C@](Nc1cc(Cl)c2ncc(C#N)c(N[C@H](CC)c3ccccc3)c2c1)(c1cccc(C#N)c1)c1c[nH]nn1 [Compound 15] | 134 | 4
CC(C)(C)N1CCC(n2cc([C@@H](Nc3cc(Cl)c4ncc(C#N)c(NC(=O)c5ccccc5)c4c3)c3ccc(F)cc3)nn2)CC1 [Compound 16, (S)-N-(6-(((1-(1-(tert-butyl)piperidin-4-yl)-1H-1,2,3-triazol-4-yl)(4-fluorophenyl)methyl)amino)-8-chloro-3-cyanoquinolin-4-yl)benzamide] | > 10000 | 1400

Compound | EC50 [1] [nM] | IC50 [2] [nM]
CC(C)(C)N1CCC(n2cc([C@@H](Nc3cc(Cl)c4ncc(C#N)c(Nc5ccc(F)c(Cl)c5)c4c3)c3cccc(CO)c3)nn2)CC1 [Compound 17, (S)-6-(((1-(1-(tert-butyl)piperidin-4-yl)-1H-1,2,3-triazol-4-yl)(3-(hydroxymethyl)phenyl)methyl)amino)-8-chloro-4-((3-chloro-4-fluorophenyl)amino) quinoline-3-carbonitrile] | 260 | 4
CN(C)Cc1cccc([C@H](Nc2cc(Cl)c3ncc(C#N)c(Nc4ccc(F)c(Cl)c4)c3c2)c2cn(C3CCN(C(C)(C)C)CC3)nn2)c1 [Compound 18] | 1220 | 7
CC(C)(C)N1CCC(n2cc([C@@H](Nc3cc(Cl)c4ncc(C#N)c(Nc5ccc(F)c(Cl)c5)c4c3)c3cccc(C(=O)O)c3)nn2)CC1 [Compound 19] | 18000 | 5
CN(C)C(=O)c1cccc([C@H](Nc2cc(Cl)c3ncc(C#N)c(Nc4ccc(F)c(Cl)c4)c3c2)c2cn(C3CCN(C(C)(C)C)CC3)nn2)c1 [Compound 20] | 41 | 1
CC(=O)c1cccc([C@H](Nc2cc(Cl)c3ncc(C#N)c(Nc4ccc(F)c(Cl)c4)c3c2)c2cn(C3CCN(C(C)(C)C)CC3)nn2)c1 [Compound 21] | 234 | 5
CC(O)c1cccc([C@H](Nc2cc(Cl)c3ncc(C#N)c(Nc4ccc(F)c(Cl)c4)c3c2)c2cn(C3CCN(C(C)(C)C)CC3)nn2)c1 (stereo partly drawn) [Compound 22] | 158 | 2
CC(C)(C)N1CCC(n2cc([C@@H](Nc3cc(Cl)c4ncc(C#N)c(Nc5ccc(F)c(Cl)c5)c4c3)c3cccc(-c4ncco4)c3)nn2)CC1 [Compound 23] | 95 | 2
CC(C)(C)N1CCC(n2cc([C@@H](Nc3cc(Cl)c4ncc(C#N)c(Nc5ccc(F)c(Cl)c5)c4c3)c3cccc(N)c3)nn2)CC1 [Compound 24] | 120 | 6
CC(C)(C)N1CCC(n2cc([C@@H](Nc3cc(Cl)c4ncc(C#N)c(Nc5ccc(F)c(Cl)c5)c4c3)c3cccc(NS(C)(=O)=O)c3)nn2)CC1 [Compound 25] | 975 | 4
[2H]C(Nc1cc(Cl)c2ncc(C#N)c(NCC(C)(C)C)c2c1)(c1cn(C(F)(F)CO)nn1)c1ccccc1Cl (stereo not drawn) [Compound 26] | 380 | 13
CCN1CCC(n2cnc(C(Nc3cc(Cl)c4ncc(C#N)c(Nc5ccc(F)c(Cl)c5)c4c3)c3ccccc3)c2)CC1 (stereo not drawn) [Compound 27, 8-chloro-4-((3-chloro-4-fluorophenyl)amino)-6-(((1-(1-ethylpiperidin-4-yl)-1H-imidazol-4-yl)(phenyl)methyl)amino) quinoline-3-carbonitrile] | 232 | 11
[2H][C@](Nc1cc(-c2ccccn2)c2ncc(C#N)c(NCC(C)(C)C)c2c1)(c1ccc(F)cc1)c1cn(C2CC2)nn1 [Compound 28] | > 1000 | 2000
[2H][C@](Nc1cc(C(C)O)c2ncc(C#N)c(NCC(C)(C)C)c2c1)(c1ccc(F)cc1)c1cn(C2CC2)nn1 (stereo partly drawn) [Compound 29] | > 1000 | 217
[2H][C@](Nc1cc(C#C)c2ncc(C#N)c(N[C@H](CC)c3ccccc3)c2c1)(c1ccc(F)cc1)c1cn(C2CC2)nn1 [Compound 30] | > 10000 | 7210
N#Cc1cnc2c(Cl)cc(N[C@@H](c3ccc(F)cc3)c3cn(C4CC4)nn3)cc2c1N[C@H](CCF)c1ccccc1 [Compound 32] | 78 | 5
[2H]C(Nc1cc(Cl)c2ncc(C#N)c(NC(=O)C(C)(C)C)c2c1)(c1ccc(F)cc1)c1cn(C2CC2)nn1 (stereo not drawn) [Compound 33] | > 10000 | 1620
[2H]C(Nc1cc(Cl)c2ncc(C#N)c(N[C@H](CCN3CCOCC3)c3ccccc3)c2c1)(c1ccc(F)cc1)c1cn(C2CC2)nn1 (stereo partly drawn) [Compound 34] | 192 | 13
COCCN1CCC(n2cc([C@@H](Nc3cc(Cl)c4ncc(C#N)c(Nc5ccc(F)c(Cl)c5)c4c3)c3ccc(F)cc3)nn2)CC1 [Compound 35] | 229 | 15
